Reference: ChEMBL document CHEMBL5331124, “Degradation of Hexokinase 2 Blocks Glycolysis and Induces GSDME-Dependent Pyroptosis to Amplify Immunogenic Cell Death for Breast Cancer Therapy” (J Med Chem, 2023)
Active and inactive are the calls of the source.

How the values were obtained:
4T1 [1] = test: Potency index, ratio of IC50 for lonidamine to test compound IC50 for mouse 4T1 cells assessed as cell growth inhibition measured for 72 hrs by MTT assay; assay type: functional
4T1 [2] = test: Inhibition of colony formation in mouse 4T1 cells at 5 to 20 uM incubated for 48 hrs by giemsa staining based analysis; assay type: functional, cell-based; conditions: dose 5-20 µM
[3] = biological target: T1, Hexokinase-2 (Homo sapiens) (UniProt P52789); test: Induction of HK2 degradation in human MDA-MB-231 cells upto 200 uM measured at 12 to 36 hrs; assay type: cell-based; conditions: time 12-36 hrs
T1 sequence (whole entry): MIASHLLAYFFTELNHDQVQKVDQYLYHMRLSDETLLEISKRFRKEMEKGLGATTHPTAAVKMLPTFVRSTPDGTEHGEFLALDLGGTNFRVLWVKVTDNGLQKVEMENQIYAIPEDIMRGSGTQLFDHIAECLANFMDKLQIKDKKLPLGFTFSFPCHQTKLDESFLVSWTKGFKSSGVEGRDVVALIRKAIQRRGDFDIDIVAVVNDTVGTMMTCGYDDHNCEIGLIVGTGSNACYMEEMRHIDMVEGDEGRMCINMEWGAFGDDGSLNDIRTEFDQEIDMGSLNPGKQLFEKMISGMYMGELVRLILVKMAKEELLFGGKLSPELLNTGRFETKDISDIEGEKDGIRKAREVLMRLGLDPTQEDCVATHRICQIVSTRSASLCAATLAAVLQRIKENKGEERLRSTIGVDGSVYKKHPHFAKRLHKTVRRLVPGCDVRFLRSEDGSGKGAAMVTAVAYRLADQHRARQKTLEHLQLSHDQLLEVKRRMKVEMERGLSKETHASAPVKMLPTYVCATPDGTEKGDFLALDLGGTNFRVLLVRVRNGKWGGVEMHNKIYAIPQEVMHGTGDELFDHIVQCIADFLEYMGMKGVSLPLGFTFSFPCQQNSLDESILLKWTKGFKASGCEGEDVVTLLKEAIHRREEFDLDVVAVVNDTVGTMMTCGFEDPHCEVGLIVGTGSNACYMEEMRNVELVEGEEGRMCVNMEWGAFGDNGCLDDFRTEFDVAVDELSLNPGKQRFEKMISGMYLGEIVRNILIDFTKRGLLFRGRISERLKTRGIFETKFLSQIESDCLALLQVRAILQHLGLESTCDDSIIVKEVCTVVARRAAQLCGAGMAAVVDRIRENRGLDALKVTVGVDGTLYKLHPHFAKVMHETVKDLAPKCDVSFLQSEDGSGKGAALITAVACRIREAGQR

[4] = biological target: T2, Hexokinase-2 (Mus musculus) (UniProt O08528); test: Induction of HK2 degradation in mouse 4T1 cells measured for 36 hrs by confocal microscopic analysis; assay type: cell-based; conditions: dose 2.0 µM
T2 sequence (whole entry): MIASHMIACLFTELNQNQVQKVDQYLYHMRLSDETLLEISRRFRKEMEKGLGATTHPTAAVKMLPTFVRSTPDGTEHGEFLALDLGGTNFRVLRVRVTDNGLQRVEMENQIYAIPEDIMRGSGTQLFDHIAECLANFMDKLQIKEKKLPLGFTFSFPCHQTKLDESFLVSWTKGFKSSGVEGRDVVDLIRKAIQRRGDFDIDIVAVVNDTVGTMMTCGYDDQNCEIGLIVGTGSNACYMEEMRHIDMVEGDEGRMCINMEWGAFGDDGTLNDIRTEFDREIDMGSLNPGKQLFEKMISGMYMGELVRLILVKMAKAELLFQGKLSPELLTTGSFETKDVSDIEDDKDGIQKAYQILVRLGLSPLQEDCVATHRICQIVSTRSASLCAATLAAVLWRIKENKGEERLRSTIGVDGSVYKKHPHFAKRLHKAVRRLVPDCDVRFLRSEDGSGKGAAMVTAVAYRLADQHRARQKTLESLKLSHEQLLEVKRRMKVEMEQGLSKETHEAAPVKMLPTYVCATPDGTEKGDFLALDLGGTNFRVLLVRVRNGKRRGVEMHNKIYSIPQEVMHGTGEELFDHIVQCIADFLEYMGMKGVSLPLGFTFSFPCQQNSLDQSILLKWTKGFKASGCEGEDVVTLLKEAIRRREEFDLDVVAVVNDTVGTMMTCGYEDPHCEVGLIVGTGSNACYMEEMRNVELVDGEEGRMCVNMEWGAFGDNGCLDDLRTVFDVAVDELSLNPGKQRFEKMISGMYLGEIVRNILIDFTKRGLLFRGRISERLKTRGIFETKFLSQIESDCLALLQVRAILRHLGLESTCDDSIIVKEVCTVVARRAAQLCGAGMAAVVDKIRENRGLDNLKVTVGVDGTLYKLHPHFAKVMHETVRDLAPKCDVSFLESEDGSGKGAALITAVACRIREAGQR

4T1 [5] = test: Induction of mitochondrial damage in mouse 4T1 cells assessed as reduction in LDH level at 20 uM measured for 36 hrs; assay type: functional, cell-based
4T1 [6] = test: Downregulation of PD-L1 expression in mouse 4T1 cells membrane at 20 uM measured for 36 hrs; assay type: functional, cell membranes
4T1 [7] = test: Antitumor activity against mouse 4T1 cells xenografted in BALB/c mouse assessed as reduction in tumor growth at 50 mg/kg, ip measured after 23 days; assay type: functional, organism-based; conditions: time 23.0 day
[8] = Toxicity in BALB/c mouse implanted with mouse 4T1 cells assessed as pathological changes in spleen at 50 mg/kg, ip measured after 25 days by Hematoxylin -eosin staining based analysis; assay type: organism-based; conditions: in vivo, 600 h, time 25 day
[9] = Toxicity in BALB/c mouse implanted with mouse 4T1 cells assessed as pathological changes in kidney at 50 mg/kg, ip measured after 25 days by Hematoxylin -eosin staining based analysis; assay type: organism-based; conditions: in vivo, 600 h, time 25 day
[10] = Toxicity in BALB/c mouse implanted with mouse 4T1 cells assessed as change in corpuscular hemoglobin concentration at 50 mg/kg, ip measured after 25 days by routine blood test; assay type: organism-based; conditions: in vivo, 600 h, time 25 day
4T1 [11] = test: Antitumor immunity against mouse 4T1 cells implanted in BALB/c mouse model assessed as reduction tumor cell proliferation at 50 mg/kg, ip measured after 25 days by Ki67 staining based analysis; assay type: functional, organism-based; conditions: time 25.0 day
4T1 [12] = test: Antitumor immunity against mouse 4T1 cells implanted in BALB/c mouse model assessed as upregulation of Il-1beta expression in mouse tumor by ELISA analysis; assay type: functional, cell-based
4T1 [13] = test: Antitumor immunity against mouse 4T1 cells implanted in BALB/c mouse model assessed as increase in CRT accumulation in tumor; assay type: functional, cell-based
4T1 [14] = test: Antitumor immunity against mouse 4T1 cells implanted in BALB/c mouse model assessed as decrease in PD-L1 protein expression in tumor; assay type: functional, cell-based
[15] = Toxicity in BALB/c nude mouse xenografted with human MDA-MB-231 cells assessed as effect on hemoglobin level at 50 mg/kg, ip measured after 30 days by routine blood test; assay type: organism-based; conditions: in vivo, 720 h, time 30 day
[16] = Toxicity in BALB/c nude mouse xenografted with human MDA-MB-231 cells assessed as effect on red blood cells at 50 mg/kg, ip measured after 30 days by routine blood test; assay type: organism-based; conditions: in vivo, 720 h, time 30 day
[17] = Toxicity in BALB/c mouse implanted with mouse 4T1 cells assessed as change in body weight at 50 mg/kg, ip measured after 23 days in presence of cisplatin; assay type: organism-based; conditions: in vivo, 552 h, time 23 day

O=C1CCC(N2C(=O)c3cccc(NCCCCNC(=O)c4nn(Cc5ccc(Cl)cc5Cl)c5ccccc45)c3C2=O)C(=O)N1 (configuration not stated)
Non-Toxic: Activity [8] | Activity [9] | Activity [10] | Activity [15] | Activity [16] | Activity [17]
30.1: Ratio IC50 (4T1 [1])
active: inhibition (4T1 [2]) | Activity [3] | Activity [4] Dose-Dependent Effect | Activity (4T1 [5]) | Activity (4T1 [6]) | Activity (4T1 [7]) | Activity (4T1 [11]) | Activity (4T1 [12]) | Activity (4T1 [13]) | Activity (4T1 [14])
